# Test results taken from PubChem BioAssay AID210 (DTP/NCI, 2004).
# Values joined by “and” are separate entries in the source; they are usually repeats but may differ in a detail not shown here. Equal values may be shown once. Toxic doses and inconclusive results are not listed. *1 amine or outer side, *2 acyl side, *3 side chain or, on linkers, in order; H or OH if unused. Where a SMILES comes first, the peptide text is derived from it. Bridges are numbered along the chain shown (N, C = ends). Roman numbers before positions name the chains, in order. [ ]: non-standard residue; d: D form. Actinocin(9to1) = Cc1c2oc3c(C)ccc(C(=O)[*:1])c3nc-2c(C(=O)[*:2])c(N)c1=O; NMeV = CN[CH](C(=O)O)C(C)C; Aze = O=C(O)[CH]1CCN1; Sar = CNCC(=O)O
# System: CD2F1 mice, ip Colon 26 adenocarcinoma, median survival T/C
# Assay: NCI In Vivo Anticancer Drug Screen. Data for tumor model Colon 26 Adenocarcinoma (intraperitoneal) in CD2F1 (CDF1) mice
# Conditions: endpoint: median survival time, higher = longer survival
# Protocol: The antitumor activity of compounds was measured in mice bearing transplantable tumors. Survival or tumor size were measured and the results are expressed as the measurement made in the treated group (T) divided by the measurement made in the vehicle treated control group (C). The tumor model used in this assay is Colon 26 Adenocarcinoma (intraperitoneal) in CD2F1 (CDF1) mice
# [1] = dose: 12.5 mg/kg/injection, schedule: Q04DX003 (ip), vehicle: saline with Tween-80
# [2] = dose: 25.0 mg/kg/injection, schedule: Q04DX003 (ip), vehicle: saline with Tween-80
# [3] = dose: 50.0 mg/kg/injection, schedule: Q04DX003 (ip), vehicle: saline with Tween-80
# [4] = dose: 100.0 mg/kg/injection, schedule: Q04DX003 (ip), vehicle: saline with Tween-80
# [5] = dose: 200.0 mg/kg/injection, schedule: Q04DX003 (ip), vehicle: saline with Tween-80
# [6] = dose: 400.0 mg/kg/injection, schedule: Q04DX003 (ip), vehicle: saline with Tween-80
structure (smiles),measurement,setting,value
O=C(O)C1(C(=O)O)CCC1.[NH2-].[NH2-].[Pt+2],T/C,"dose: 5.85 mg/kg/injection, schedule: Q04DX003 (iv), vehicle: saline",96 % of control
same,T/C,"dose: 8.78 mg/kg/injection, schedule: Q04DX003 (iv), vehicle: saline",102 % of control
same,T/C,"dose: 10.0 mg/kg/injection, schedule: Q01DX004 (ip), vehicle: saline",110 % of control
same,T/C,"dose: 11.7 mg/kg/injection, schedule: Q01DX001 (ip), vehicle: saline",105 % of control
same,T/C,"dose: 13.2 mg/kg/injection, schedule: Q04DX003 (iv), vehicle: saline",105 % of control
same,T/C,"dose: 17.6 mg/kg/injection, schedule: Q01DX001 (ip), vehicle: saline",102 % of control
same,T/C,"dose: 17.6 mg/kg/injection, schedule: Q01DX001 (iv), vehicle: saline",91 % of control
same,T/C,"dose: 19.8 mg/kg/injection, schedule: Q04DX003 (ip), vehicle: saline",171 % of control
same,T/C,"dose: 19.8 mg/kg/injection, schedule: Q04DX003 (iv), vehicle: saline",117 % of control
same,T/C,"dose: 20.0 mg/kg/injection, schedule: Q01DX004 (ip), vehicle: saline",225 % of control
same,T/C,"dose: 25.0 mg/kg/injection, schedule: Q04DX003 (ip), vehicle: dextrose",203 % of control
same,T/C,"dose: 26.3 mg/kg/injection, schedule: Q01DX001 (ip), vehicle: saline",109 % of control and 217 % of control
same,T/C,"dose: 26.3 mg/kg/injection, schedule: Q01DX001 (iv), vehicle: saline",118 % of control and 94 % of control
same,T/C,"dose: 29.6 mg/kg/injection, schedule: Q04DX003 (ip), vehicle: saline",225 % of control
same,T/C,"dose: 29.6 mg/kg/injection, schedule: Q04DX003 (iv), vehicle: saline",162 % of control
same,T/C,"dose: 30.0 mg/kg/injection, schedule: Q04DX004 (iv), vehicle: other",154 % of control
same,T/C,"dose: 33.0 mg/kg/injection, schedule: Q04DX002 (iv), vehicle: other",109 % of control
same,T/C,"dose: 39.5 mg/kg/injection, schedule: Q01DX001 (ip), vehicle: saline",168 % of control
same,T/C,"dose: 39.5 mg/kg/injection, schedule: Q01DX001 (iv), vehicle: saline",95 % of control
same,T/C,"dose: 40.0 mg/kg/injection, schedule: Q01DX004 (ip), vehicle: saline",380 % of control
same,T/C,"dose: 44.0 mg/kg/injection, schedule: Q04DX004 (iv), vehicle: other",226 % of control
same,T/C,"dose: 44.4 mg/kg/injection, schedule: Q04DX003 (ip), vehicle: saline",257 % of control
same,T/C,"dose: 44.4 mg/kg/injection, schedule: Q04DX003 (iv), vehicle: saline",188 % of control
same,T/C,"dose: 50.0 mg/kg/injection, schedule: Q04DX003 (ip), vehicle: dextrose",228 % of control
same,T/C,"dose: 59.3 mg/kg/injection, schedule: Q01DX001 (ip), vehicle: saline",217 % of control
same,T/C,"dose: 59.3 mg/kg/injection, schedule: Q01DX001 (iv), vehicle: saline",103 % of control and 118 % of control
same,T/C,"dose: 60.0 mg/kg/injection, schedule: Q01DX004 (ip), vehicle: saline",324 % of control
same,T/C,"dose: 65.0 mg/kg/injection, schedule: Q04DX004 (iv), vehicle: other",253 % of control
same,T/C,"dose: 66.7 mg/kg/injection, schedule: Q04DX003 (ip), vehicle: saline",151 % of control
same,T/C,"dose: 87.0 mg/kg/injection, schedule: Q04DX002 (iv), vehicle: other",183 % of control
same,T/C,"dose: 88.9 mg/kg/injection, schedule: Q01DX001 (ip), vehicle: saline",217 % of control and 257 % of control
same,T/C,"dose: 88.9 mg/kg/injection, schedule: Q01DX001 (iv), vehicle: saline",102 % of control
same,T/C,"dose: 100.0 mg/kg/injection, schedule: Q04DX003 (ip), vehicle: saline",257 % of control
same,T/C,"dose: 100.0 mg/kg/injection, schedule: Q04DX003 (iv), vehicle: saline",168 % of control
same,T/C,"dose: 133.0 mg/kg/injection, schedule: Q01DX001 (ip), vehicle: saline",217 % of control and 257 % of control
same,T/C,"dose: 133.0 mg/kg/injection, schedule: Q01DX001 (iv), vehicle: saline",121 % of control and 257 % of control
same,T/C,"dose: 200.0 mg/kg/injection, schedule: Q01DX001 (ip), vehicle: saline",217 % of control and 257 % of control
CC(C)CCCCCCCCCCCCC(=O)NCC(=O)NC1C(O)C(O)C(Nc2ncnc3nc[nH]c23)OC1C(O)CO (stereo not drawn),T/C,"dose: 0.5 mg/kg/injection, schedule: Q04DX003 (ip), vehicle: Klucel (hydroxypropylcellulose) (HPC)",91 % of control
same,T/C,"dose: 1.0 mg/kg/injection, schedule: Q04DX003 (ip), vehicle: Klucel (hydroxypropylcellulose) (HPC)",97 % of control
same,T/C,"dose: 2.0 mg/kg/injection, schedule: Q04DX003 (ip), vehicle: Klucel (hydroxypropylcellulose) (HPC)",101 % of control
same,T/C,"dose: 4.0 mg/kg/injection, schedule: Q04DX003 (ip), vehicle: Klucel (hydroxypropylcellulose) (HPC)",103 % of control
O=C(O)CC(NC(=O)CP(=O)(O)O)C(=O)O (stereo not drawn),T/C,"dose: 108.0 mg/kg/injection, schedule: Q04DX003 (ip), vehicle: saline",119 % of control
same,T/C,"dose: 180.0 mg/kg/injection, schedule: Q04DX003 (ip), vehicle: saline",115 % of control
same,T/C,"dose: 180.0 mg/kg/injection, schedule: Q04DX003 (ip), vehicle: water",161 % of control
same,T/C,"dose: 300.0 mg/kg/injection, schedule: Q04DX003 (ip), vehicle: water",106 % of control
same,T/C,"dose: 833.0 mg/kg/injection, schedule: Q04DX003 (ip), vehicle: saline",187 % of control
"Cc1c2oc3c(C)ccc(C(=O)NC4C(=O)NC(C(C)C)C(=O)N5CCC5C(=O)N(C)CC(=O)N(C)C(C(C)C)C(=O)OC4C)c3nc-2c(C(=O)NC2C(=O)NC(C(C)C)C(=O)N3CCC3C(=O)N(C)CC(=O)N(C)C(C(C)C)C(=O)OC2C)c(N)c1=O (stereo not drawn) (I: TV[Aze][Sar][NMeV] / II: TV[Aze][Sar][NMeV]; ester I:1-I:C, II:1-II:C; linker I:N-II:N via Actinocin(9to1); configuration not given here)",T/C,"dose: 270.0 micrograms/kg/injection, schedule: Q04DX003 (ip), vehicle: saline + alcohol",114 % of control
Nc1ccc(Cl)cc1N,T/C,"dose: 12.5 mg/kg/injection, schedule: Q04DX003 (ip), vehicle: saline + Tween-80 + alcohol",96 % of control
same,T/C,[1],100 % of control
same,T/C,"dose: 25.0 mg/kg/injection, schedule: Q04DX003 (ip), vehicle: saline + Tween-80 + alcohol",98 % of control
same,T/C,[2],100 % of control
same,T/C,"dose: 50.0 mg/kg/injection, schedule: Q04DX003 (ip), vehicle: saline + Tween-80 + alcohol",102 % of control
same,T/C,[3],100 % of control
same,T/C,"dose: 100.0 mg/kg/injection, schedule: Q04DX003 (ip), vehicle: saline + Tween-80 + alcohol",104 % of control
same,T/C,[4],102 % of control
same,T/C,"dose: 200.0 mg/kg/injection, schedule: Q04DX003 (ip), vehicle: saline + Tween-80 + alcohol",107 % of control
same,T/C,[5],106 % of control
same,T/C,[6],109 % of control
[N-]=[N+]=CC(=O)CCC(N)C(=O)O (stereo not drawn),T/C,"dose: 0.2 mg/kg/injection, schedule: Q04DX003 (ip), vehicle: saline",102 % of control
same,T/C,"dose: 0.39 mg/kg/injection, schedule: Q04DX003 (ip), vehicle: saline",108 % of control
same,T/C,"dose: 0.78 mg/kg/injection, schedule: Q04DX003 (ip), vehicle: saline",108 % of control
same,T/C,"dose: 1.56 mg/kg/injection, schedule: Q04DX003 (ip), vehicle: saline",111 % of control
same,T/C,"dose: 3.13 mg/kg/injection, schedule: Q04DX003 (ip), vehicle: saline",120 % of control
same,T/C,"dose: 6.25 mg/kg/injection, schedule: Q04DX003 (ip), vehicle: saline",119 % of control
O=Cc1ccc(C(Cl)(Cl)Cl)cc1,T/C,[1],103 % of control and 107 % of control
same,T/C,[2],106 % of control and 109 % of control
same,T/C,[3],114 % of control and 98 % of control
same,T/C,[4],96 % of control
same,T/C,[5],98 % of control
same,T/C,[6],103 % of control
CC1OC(=O)C(C(C)C)NC(=O)C(C(C)C)OC(=O)C(C(C)C)NC(=O)C(C)OC(=O)C(C(C)C)NC(=O)C(C(C)C)OC(=O)C(C(C)C)NC(=O)C(C)OC(=O)C(C(C)C)NC(=O)C(C(C)C)OC(=O)C(C(C)C)NC1=O (stereo not drawn),T/C,"dose: 0.75 mg/kg/injection, schedule: Q04DX003 (ip), vehicle: Klucel (hydroxypropylcellulose) (HPC)",181 % of control
same,T/C,"dose: 1.5 mg/kg/injection, schedule: Q04DX003 (ip), vehicle: Klucel (hydroxypropylcellulose) (HPC)",186 % of control
same,T/C,"dose: 3.0 mg/kg/injection, schedule: Q04DX003 (ip), vehicle: Klucel (hydroxypropylcellulose) (HPC)",200 % of control
same,T/C,"dose: 6.0 mg/kg/injection, schedule: Q04DX003 (ip), vehicle: Klucel (hydroxypropylcellulose) (HPC)",193 % of control
same,T/C,"dose: 12.0 mg/kg/injection, schedule: Q04DX003 (ip), vehicle: Klucel (hydroxypropylcellulose) (HPC)",165 % of control
CCCNCCNc1ccc(NCCNCCC)c2c1C(=O)c1ccccc1C2=O,T/C,"dose: 4.0 mg/kg/injection, schedule: Q01DX009 (ip), vehicle: acid diluted with saline",106 % of control
same,T/C,"dose: 8.0 mg/kg/injection, schedule: Q01DX009 (ip), vehicle: acid diluted with saline",98 % of control
same,T/C,"dose: 16.0 mg/kg/injection, schedule: Q01DX009 (ip), vehicle: acid diluted with saline",100 % of control
